Values after ≈ are worked out from the molar mass of the structure shown.
What was measured:
[1] = test system: carbapenem-resistant Acinetobacter baumannii CR-AB 18-560; assay: MIC by microbroth dilution, CR-AB 18-560; assay type: cell-based; conditions: strain CR-AB 18-560
Experimental: (§1) The minimal inhibitory concentrations (MIC) of the compounds were determined by microbroth dilution method with gentamicin, cefazolin sodium and ceftriaxone sodium as positive control.
(§2) The experimental strains included methicillin-resistant Gram-positive bacteria: methicillin-resistant Straphylococcus aureus MRSA 18-222, 18-575; multiple drug-resistant Gram-negative bacteria: vancomycin-resistant Enterococci VRE 18-80, 18-94, multidrug-resistant Pseudomonas aeruginosa MDR-PA 18-1774, 18-202, carbapenem-resistant Acinetobacter baumannii CR-AB 18-183, 18-560. All the experimental strains were donated by Huashan Hospital affiliated to Fudan University (Institute of antibiotics, Fudan University) and used after routine identification.
(§3) Preparation of MHB medium: 20.0 g MHB medium was added to 1 L distilled water, boiled until completely dissolved, packed in conical bottles and sterilized at 121° C. for 15 min.
(§4) The experimental strain was cultured to the logarithmic growth phase: under aseptic condition, the experimental strain was inoculated into 100 mL MHB medium and incubated in a constant temperature and humidity incubator at 37° C. for 20-22 hours.
(§5) Preparation of storage solution: weighing the sample to be tested, dissolving it with 1% DMSO solution, preparing a storage solution with a concentration of 2560 μg/mL, weighing a positive reference substance, dissolving it with aseptic distilled water, and configuring a storage solution with a concentration of 2560 μg/mL.
(§6) Preparation of bacterial suspension: under aseptic condition, the experimental strains cultured to logarithmic growth phase were adjusted to 0.5 MCF turbidity standard with MHB medium and diluted according to 1:10, and the bacterial suspension with concentration of 10^6 CFU/mL was prepared for standby.
(§7) Dilution of storage solution and inoculation of experimental strain: under aseptic condition, the storage solution was diluted to 256 μg/mL solution. Taking a sterile 96-well plate, adding 200 μL MHB medium to the 12th well, and adding 100 μL MHB medium to each well. Adding 100 μL of positive control solution to the first well, mixing well, and taking 100 μL and discard. Adding 100 μL of the compound sample solution to the second well, mixing well, and then pipetting 100 μL to the third well. After mixing, pipetting 100 μL to the fourth well, and diluting to the 11th well in the same way. Finally, 100 μL was pipetted from the 11th well and discarded. The 12th hole was the growth control without drugs. The concentration of the positive reference substance was 128 μg/mL, the concentrations of the sample solution were 128, 64, […] respectively. Then, 100 μL of the prepared bacterial suspension was added to each well, so that the final concentration of the bacterial liquid in each well was 5×10^5 CFU/mL.
(§8) Incubation: Covering the 96-well plate inoculated with the experimental strains, and incubating in a constant temperature and humidity box at 37° C. for 20-22 hours.

[2] = test system: vancomycin-resistant Enterococci VRE 18-94; assay: MIC by microbroth dilution, VRE 18-94; assay type: cell-based; conditions: strain VRE 18-94
Experimental: as §1, §2, §3, §4, §5, §6, §7, §8

[3] = test system: methicillin-resistant Straphylococcus aureus MRSA 18-575; assay: MIC by microbroth dilution, MRSA 18-575; assay type: cell-based; conditions: strain MRSA 18-575
Experimental: as §1, §2, §3, §4, §5, §6, §7, §8

[4] = test system: methicillin-resistant Straphylococcus aureus MRSA 18-222; assay: MIC by microbroth dilution, MRSA 18-222; assay type: cell-based; conditions: for Minimum bacteriostatic concentration: strain MRSA 18-222
Experimental: as §1, §2, §3, §4, §5, §6, §7, §8

[5] = test system: multidrug-resistant Pseudomonas aeruginosa MDR-PA 18-174; assay: MIC by microbroth dilution, MDR-PA 18-174; assay type: cell-based; conditions: for Minimum bacteriostatic concentration: strain MDR-PA 18-174
Experimental: as §1, §2, §3, §4, §5, §6, §7, §8

[6] = test system: vancomycin-resistant Enterococci VRE 18-80; assay: MIC by microbroth dilution, VRE 18-80; assay type: cell-based; conditions: strain VRE 18-80
Experimental: as §1, §2, §3, §4, §5, §6, §7, §8

[7] = test system: multidrug-resistant Pseudomonas aeruginosa MDR-PA 18-202; assay: MIC by microbroth dilution, MDR-PA 18-202; assay type: cell-based; conditions: strain MDR-PA 18-202
Experimental: as §1, §2, §3, §4, §5, §6, §7, §8

[8] = test system: carbapenem-resistant Acinetobacter baumannii CR-AB 18-183; assay: MIC by microbroth dilution, CR-AB 18-183; assay type: cell-based; conditions: strain CR-AB 18-183
Experimental: as §1, §2, §3, §4, §5, §6, §7, §8

[9] = DPPH radical scavenging activity assay; conditions: for DPPH clearance rate: n = 3
Experimental: The antioxidant activity of the hydroxytyrosol cinnamic acid ester was measured by a DPPH radical scavenging activity assay. 2,2-Diphenyl-1-picryl hydrazyl (DPPH) is an organic compound composed of a stable organic radical. In the DPPH molecule, due to the presence of multiple electron-withdrawing —NO2 and large π bonds of the benzene ring, nitrogen free radical is stabilized. Its methanol solution is purple and has a maximum absorption peak at 517 nm. After the addition of an antioxidant, DPPH captures an electron to be paired with the free electron, and the purple fades and turns into a yellow substance. The absorption at 517 nm disappears, and the degree of fading is quantitatively related to the number of electrons it captures. Based on this principle, a spectrophotometer is used to detect the change of the absorbance of the DPPH radical and the sample solution, and the ability of the sample to provide hydrogen atoms and scavenge free radicals can be measured. measuring exact amount of 2,2-diphenyl-1-picryl hydrazyl (DPPH) and dissolving in toluene to prepare a 0.2 mmoL/L DPPH solution, stored at 0° C. in dark. Vc (positive control), hydroxytyrosol cinnamic acid ester (sample), hydroxytyrosol (control) and cinnamic acid (control). The sample solution was subjected to gradient dilution with toluene, and three sets of controls were separately dissolved in a test tube with a certain amount of toluene to prepare the same concentration gradient as the sample. Sample liquid absorbance measurement: Take 2 mL of sample solution (Table 1 Vc, B, C), add 2 mL of DPPH solution with concentration of 2×10^−4 moL/L, mix and react in the dark at room temperature for 30 min, adjust to zero with toluene, and measure at 517 nm. The absorbance Ai was simultaneously measured for the absorbance Aj of 2 mL of toluene mixed with 2 mL of the sample solution and the absorbance Ao of 2 mL of DPPH solution mixed with 2 mL of toluene (The experimental results are shown in Table 2). Clearance calculation: Clearance Rate (%)=[1−(Ai−Aj)/Ao]*100%

drug-resistant bacteria = assay: Antibacterial activity test, summary over all experimental strains; assay type: cell-based; conditions: text summary of FIGS. 2-3 and Table 4
Experimental: as §1, §2, §3
The experimental strain was cultured to the logarithmic growth phase: under aseptic condition, the experimental strain was inoculated into 100 mL MHB medium and incubated in a constant temperature and humidity incubator at 37° C. for 20-22 hours. […]

Compound	Minimum bacteriostatic concentration [1]	Minimum bacteriostatic concentration [2]	Minimum bacteriostatic concentration [3]	Minimum bacteriostatic concentration [4]	Minimum bacteriostatic concentration [5]	Minimum bacteriostatic concentration [6]	Minimum bacteriostatic concentration [7]	Minimum bacteriostatic concentration [8]	DPPH clearance rate ([9]; 1.76 ppm)	DPPH clearance rate ([9]; 8.80 ppm)	DPPH clearance rate ([9]; 21.12 ppm)	DPPH clearance rate ([9]; 42.24 ppm)	DPPH clearance rate ([9]; 79.20 ppm)	DPPH clearance rate ([9]; 112.64 ppm)	DPPH clearance rate ([9]; 281.60 ppm)	DPPH clearance rate ([9]; 492.80 ppm)	DPPH clearance rate ([9]; 792.00 ppm)	DPPH clearance rate ([9]; 915.20 ppm)	also measured
Cc1nnc(SCC2=C(C(=O)O)N3C(=O)[C@@H](NC(=O)Cn4cnnn4)[C@H]3SC2)s1 [Cefazolin sodium]	>128 µg/mL	>128 µg/mL	>128 µg/mL	>128 µg/mL	8 µg/mL	32 µg/mL	128 µg/mL	>128 µg/mL	–	–	–	–	–	–	–	–	–	–	–
CO/N=C(\C(=O)N[C@@H]1C(=O)N2C(C(=O)O)=C(CSc3nc(=O)c(=O)[nH]n3C)CS[C@H]12)c1csc(N)n1 [Ceftriaxone sodium]	>128 µg/mL	>128 µg/mL	>128 µg/mL	>128 µg/mL	128 µg/mL	8 µg/mL	16 µg/mL	>128 µg/mL	–	–	–	–	–	–	–	–	–	–	–
O=C(O)C=Cc1ccccc1 [Cinnamic acid]	>128 µg/mL	>128 µg/mL	>128 µg/mL	>128 µg/mL	>128 µg/mL	>128 µg/mL	>128 µg/mL	>128 µg/mL	6.45%	8.20%	14.52%	20.33%	31.75%	38.62%	54.12%	59.60%	70.53%	71.89%	inhibitory effect on drug-resistant bacteria (drug-resistant bacteria): no inhibitory effect
O=C(/C=C\c1ccccc1)OCCc1ccc(O)c(O)c1 [Hydroxytyrosol cinnamic acid ester, (Z)-3,4-Dihydroxyphenethyl 3-Phenylacrylate]	>128 µg/mL	>128 µg/mL	>128 µg/mL	32 µg/mL	64 µg/mL	>128 µg/mL	>128 µg/mL	>128 µg/mL	0.56%	16.52%	31.75%	43.52%	55.11%	68.53%	76.22%	80.95%	84.32%	85.03%	MIC ([4]; Staphylococcus aureus, multi-drug resistant Straphylococcus aureus MRSA (text summary, strain number not given)): 32 µg/mL (≈ 113 µM); antioxidant activity [9]: excellent antioxidant activity; MIC ([5]; multi-drug resistant Pseudomonas aeruginosa MDR-PA (text summary, strain number not given)): 64 µg/mL (≈ 225 µM)
OCCc1ccc(O)c(O)c1 [Hydroxytyrosol]	>128 µg/mL	>128 µg/mL	>128 µg/mL	>128 µg/mL	>128 µg/mL	>128 µg/mL	>128 µg/mL	>128 µg/mL	–	–	–	–	–	–	–	–	–	–	inhibitory effect on drug-resistant bacteria (drug-resistant bacteria): no inhibitory effect
O=C1O[C@H]([C@@H](O)CO)C(O)=C1O [Vc]	–	–	–	–	–	–	–	–	23.16%	33.47%	79.63%	89.55%	97.42%	97.53%	98.29%	99.06%	99.10%	99.28%	–
Gentamicin	>128 µg/mL	>128 µg/mL	2 µg/mL	128 µg/mL	0.0625 µg/mL	0.0625 µg/mL	0.0625 µg/mL	>128 µg/mL	–	–	–	–	–	–	–	–	–	–	–
